From the supplement of paper PMC10627819

Experiments:
Assay in all cases: Bliss interaction score (quartile over a dose matrix) (fitness difference); higher = more antagonism (negative = synergy)
S. aureus Newman = tested on: S. aureus Newman
Summary of the method: (§1)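 Growth in each well was taken as OD595 at entry into stationary phase. Dividing by the plate's robust no-drug mean and capping at 1 gave fitness, and single-drug fitness was inferred from the combination data. The Bliss score, observed minus product-expected fitness, is summarised by quartiles over technical, biological and donor/recipient replicates.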

B. subtilis 168 = tested on: B. subtilis 168
Summary of the method: as §1

S. pneumoniae D39V = tested on: S. pneumoniae D39V
Summary of the method: as §1

S. aureus DSM 20231 = tested on: S. aureus DSM 20231
Summary of the method: as §1
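Further: first quartile when negative (synergy) and third quartile when positive (antagonism).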

Structure (SMILES)	Bliss interaction score (S. aureus Newman)	Bliss interaction score (B. subtilis 168)	Bliss interaction score (S. pneumoniae D39V)	Bliss interaction score (S. aureus DSM 20231)	Bliss interaction score (S. aureus Newman; main component drawn)	Bliss interaction score (B. subtilis 168; main component drawn)	Bliss interaction score (S. pneumoniae D39V; main component drawn)	Bliss interaction score (S. aureus DSM 20231; main component drawn)
N[C@@H]1CONC1=O [CycloserineD] + Clc1ccc(COC(Cn2ccnc2)c2ccc(Cl)cc2Cl)c(Cl)c1 [Miconazole]	-0.0328	0.0883	-0.0729	0.0763	–	–	–	–
N[C@@H]1CONC1=O [CycloserineD] + Cn1nnc(-c2ccc(-c3ccc(N4C[C@H](CO)OC4=O)cc3F)cn2)n1 [Tedizolid]	0.0593	0.0364	0.126	-0.101	–	–	–	–
N[C@@H]1CONC1=O [CycloserineD] + O=C1CN(/N=C/c2ccc([N+](=O)[O-])o2)C(=O)N1 [Nitrofurantoin]	-0.0425	0.173	0.197	0.0785	–	–	–	–
N[C@@H]1CONC1=O [CycloserineD] + O=C(O[C@@H]1Cc2c(O)cc(O)cc2O[C@@H]1c1cc(O)c(O)c(O)c1)c1cc(O)c(O)c(O)c1 [EGCG]	0.0286	-0.114	-0.0875	-0.107	–	–	–	–
N[C@@H]1CONC1=O [CycloserineD] + Oc1cc(Cl)ccc1Oc1ccc(Cl)cc1Cl [Triclosan]	0.0356	0.0246	-0.11	0.0965	–	–	–	–
O=C(O[C@@H]1Cc2c(O)cc(O)cc2O[C@@H]1c1cc(O)c(O)c(O)c1)c1cc(O)c(O)c(O)c1 [EGCG] + CC1(C)S[C@@H]2[C@H](NC(=O)Cc3ccccc3)C(=O)N2[C@H]1C(=O)O [PenicillinG]	0.0531	0.0517	0.108	0.059	–	–	–	–
O=C(O[C@@H]1Cc2c(O)cc(O)cc2O[C@@H]1c1cc(O)c(O)c(O)c1)c1cc(O)c(O)c(O)c1 [EGCG] + CC(=O)O[C@H]1C[C@@]2(C)[C@@H](C[C@@H](O)[C@H]3[C@@]4(C)CC[C@@H](O)[C@@H](C)[C@@H]4CC[C@@]32C)/C1=C(\CCC=C(C)C)C(=O)O [Fusidic acid]	-0.0283	0.0767	-0.143	-0.019	–	–	–	–
O=C(O[C@@H]1Cc2c(O)cc(O)cc2O[C@@H]1c1cc(O)c(O)c(O)c1)c1cc(O)c(O)c(O)c1 [EGCG] + CC[C@H]1OC(=O)[C@H](C)C(=O)[C@H](C)[C@@H](O[C@@H]2O[C@H](C)C[C@H](N(C)C)[C@H]2O)[C@](C)(OC)C[C@@H](C)C(=O)[C@H](C)[C@H]2N(CCCCn3cnc(-c4cccnc4)c3)C(=O)O[C@]12C [Telithromycin]	0.0859	0.0403	0.0892	-0.079	–	–	–	–
O=C(O[C@@H]1Cc2c(O)cc(O)cc2O[C@@H]1c1cc(O)c(O)c(O)c1)c1cc(O)c(O)c(O)c1 [EGCG] + CC[C@H]1OC(=O)[C@H](C)[C@@H](O[C@H]2C[C@@](C)(OC)[C@@H](O)[C@H](C)O2)[C@H](C)[C@@H](O[C@@H]2O[C@H](C)C[C@H](N(C)C)[C@H]2O)[C@](C)(O)C[C@@H](C)C(=O)[C@H](C)[C@@H](O)[C@]1(C)O [Erythromycin]	-0.0582	0.0527	0.0597	-0.0558	–	–	–	–
O=C(O[C@@H]1Cc2c(O)cc(O)cc2O[C@@H]1c1cc(O)c(O)c(O)c1)c1cc(O)c(O)c(O)c1 [EGCG] + CN[C@H](CC(C)C)C(=O)N[C@H]1C(=O)N[C@@H](CC(N)=O)C(=O)N[C@H]2C(=O)N[C@H]3C(=O)N[C@H](C(=O)N[C@H](C(=O)O)c4cc(O)cc(O)c4-c4cc3ccc4O)[C@H](O[C@H]3C[C@](C)(N)[C@@H](O)[C@H](C)O3)c3ccc(c(Cl)c3)Oc3cc2cc(c3O[C@@H]2O[C@H](CO)[C@@H](O)[C@H](O)[C@H]2O[C@H]2C[C@](C)(NCc3ccc(-c4ccc(Cl)cc4)cc3)[C@@H](O)[C@H](C)O2)Oc2ccc(cc2Cl)[C@H]1O [Oritavancin]	0.318	0.0249	0.0545	0.176	–	–	–	–
O=C(O[C@@H]1Cc2c(O)cc(O)cc2O[C@@H]1c1cc(O)c(O)c(O)c1)c1cc(O)c(O)c(O)c1 [EGCG] + CO[C@@]12[C@H](COC(N)=O)C3=C(C(=O)C(C)=C(N)C3=O)N1C[C@@H]1N[C@@H]12 [MitomycinC]	0.051	-0.0639	0.0987	-0.0345	–	–	–	–
O=C(O[C@@H]1Cc2c(O)cc(O)cc2O[C@@H]1c1cc(O)c(O)c(O)c1)c1cc(O)c(O)c(O)c1 [EGCG] + Oc1cc(Cl)ccc1Oc1ccc(Cl)cc1Cl [Triclosan]	0.0222	-0.0336	-0.0791	0.0962	–	–	–	–
CC(=O)O[C@H]1C[C@@]2(C)[C@@H](C[C@@H](O)[C@H]3[C@@]4(C)CC[C@@H](O)[C@@H](C)[C@@H]4CC[C@@]32C)/C1=C(\CCC=C(C)C)C(=O)O [Fusidic acid] + C/C(=C\C(=O)OCCCCCCCCC(=O)O)C[C@@H]1OC[C@H](C[C@@H]2O[C@H]2[C@@H](C)[C@H](C)O)[C@@H](O)[C@H]1O [Pseudomonic acid]	0.031	-0.0331	0.1	0.0339	–	–	–	–
CC(=O)O[C@H]1C[C@@]2(C)[C@@H](C[C@@H](O)[C@H]3[C@@]4(C)CC[C@@H](O)[C@@H](C)[C@@H]4CC[C@@]32C)/C1=C(\CCC=C(C)C)C(=O)O [Fusidic acid] + CC1(C)S[C@@H]2[C@H](NC(=O)Cc3ccccc3)C(=O)N2[C@H]1C(=O)O [PenicillinG]	-0.0384	0.0421	0.0666	0.0382	–	–	–	–
CC(=O)O[C@H]1C[C@@]2(C)[C@@H](C[C@@H](O)[C@H]3[C@@]4(C)CC[C@@H](O)[C@@H](C)[C@@H]4CC[C@@]32C)/C1=C(\CCC=C(C)C)C(=O)O [Fusidic acid] + CC1=C\[C@@H](O)CC(=O)Cc2nc(co2)C(=O)N2CCC=C2C(=O)O[C@H](C(C)C)[C@H](C)/C=C/C(=O)NC\C=C\1 [Virginiamycin M1]	-0.044	0.0743	0.0996	0.0345	–	–	–	–
CC(=O)O[C@H]1C[C@@]2(C)[C@@H](C[C@@H](O)[C@H]3[C@@]4(C)CC[C@@H](O)[C@@H](C)[C@@H]4CC[C@@]32C)/C1=C(\CCC=C(C)C)C(=O)O [Fusidic acid] + CC(=O)NC[C@H]1CN(c2ccc(N3CCOCC3)c(F)c2)C(=O)O1 [Linezolid]	-0.0198	-0.141	-0.1	-0.0285	–	–	–	–
CC(=O)O[C@H]1C[C@@]2(C)[C@@H](C[C@@H](O)[C@H]3[C@@]4(C)CC[C@@H](O)[C@@H](C)[C@@H]4CC[C@@]32C)/C1=C(\CCC=C(C)C)C(=O)O [Fusidic acid] + CC(C1CCC(C(O1)OC2C(CC(C(C2O)OC3C(C(C(CO3)(C)O)NC)O)N)N)N)NC [Gentamicin]	–	–	–	–	0.0572	-0.0712	-0.0713	0.034
